Measurements as given in PubChem BioAssay AID1919008 (Molecular Pharmacology Branch, DTP, NCI, 2023).

Tested on: DMS-114 complex spheroids with HUVEC/MSC, growth % test/control
Test: Anticancer human tumor DMS-114 cell line growth inhibition [AhR];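 also: spheroids exposed to agents for 7 days before readout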;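 as to viability, T/C: 100% = DMSO vehicle control wells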
Conditions: for IC50: curve of first compound; for viability, T/C: stronger effect = lower value
Procedure, shortened: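 Spheroids combined tumor cells with HUVEC endothelial cells and human MSCs as stroma. AhR antagonists were paired with standard or investigational drugs, each dosed in half-log steps down from near clinical Cmax, or from 10 microM where Cmax was unknown.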

[1] = second compound 0.1 µM, first compound 0.0316 µM
[2] = second compound 0.1 µM, first compound 0.1 µM
[3] = second compound 0.1 µM, first compound 0.316 µM
[4] = second compound 0.1 µM, first compound 1 µM
[5] = second compound 0.1 µM, first compound 3.16 µM
[6] = second compound 0.1 µM, first compound 10 µM
[7] = second compound 0.316 µM, first compound 0.0316 µM
[8] = second compound 0.316 µM, first compound 0.1 µM
[9] = second compound 0.316 µM, first compound 0.316 µM
[10] = second compound 0.316 µM, first compound 1 µM
[11] = second compound 0.316 µM, first compound 3.16 µM
[12] = second compound 0.316 µM, first compound 10 µM
[13] = second compound 1 µM, first compound 0.0316 µM
[14] = second compound 1 µM, first compound 0.1 µM
[15] = second compound 1 µM, first compound 0.316 µM
[16] = second compound 1 µM, first compound 1 µM
[17] = second compound 1 µM, first compound 3.16 µM
[18] = second compound 1 µM, first compound 10 µM
[19] = second compound 3.16 µM, first compound 0.0316 µM
[20] = second compound 3.16 µM, first compound 0.1 µM
[21] = second compound 3.16 µM, first compound 0.316 µM
[22] = second compound 3.16 µM, first compound 1 µM
[23] = second compound 3.16 µM, first compound 3.16 µM
[24] = second compound 3.16 µM, first compound 10 µM
[25] = second compound 10 µM, first compound 0.0316 µM
[26] = second compound 10 µM, first compound 0.1 µM
[27] = second compound 10 µM, first compound 0.316 µM
[28] = second compound 10 µM, first compound 1 µM
[29] = second compound 10 µM, first compound 3.16 µM
[30] = second compound 10 µM, first compound 10 µM

## CC1(C)CCC(CN2CCN(c3ccc(C(=O)NS(=O)(=O)c4ccc(NCC5CCOCC5)c([N+](=O)[O-])c4)c(Oc4cnc5[nH]ccc5c4)c3)CC2)=C(c2ccc(Cl)cc2)C1 + Cc1ccccc1N=Nc1ccc(NC(=O)c2ccnn2C)c(C)c1
Second compound 0.1 µM
  IC50: > 10 µM
Second compound 0.316 µM
  IC50: > 10 µM
Second compound 1 µM
  IC50: > 10 µM
Second compound 3.16 µM
  IC50: > 10 µM
Second compound 10 µM
  IC50: > 10 µM
[1]
  viability, T/C: 103%
[2]
  viability, T/C: 100%
[3]
  viability, T/C: 112%
[4]
  viability, T/C: 114%
[5]
  viability, T/C: 120%
[6]
  viability, T/C: 107%
[7]
  viability, T/C: 120%
[8]
  viability, T/C: 112%
[9]
  viability, T/C: 105%
[10]
  viability, T/C: 104%
[11]
  viability, T/C: 117%
[12]
  viability, T/C: 118%
[13]
  viability, T/C: 105%
[14]
  viability, T/C: 107%
[15]
  viability, T/C: 113%
[16]
  viability, T/C: 111%
[17]
  viability, T/C: 117%
[18]
  viability, T/C: 102%
[19]
  viability, T/C: 99.8%
[20]
  viability, T/C: 104%
[21]
  viability, T/C: 103%
[22]
  viability, T/C: 110%
[23]
  viability, T/C: 114%
[24]
  viability, T/C: 105%
[25]
  viability, T/C: 104%
[26]
  viability, T/C: 102%
[27]
  viability, T/C: 101%
[28]
  viability, T/C: 104%
[29]
  viability, T/C: 101%
[30]
  viability, T/C: 87.1%

## COc1cc(Nc2ncc3c(n2)-c2ccc(Cl)cc2C(c2c(F)cccc2OC)=NC3)ccc1C(=O)O + Cc1ccccc1N=Nc1ccc(NC(=O)c2ccnn2C)c(C)c1
Second compound 0.1 µM
  IC50: > 10 µM
Second compound 0.316 µM
  IC50: > 10 µM
Second compound 1 µM
  IC50: > 10 µM
Second compound 3.16 µM
  IC50: > 10 µM
Second compound 10 µM
  IC50: < 0.0316 µM
[1]
  viability, T/C: 63%
[2]
  viability, T/C: 57.5%
[3]
  viability, T/C: 106%
[4]
  viability, T/C: 108%
[5]
  viability, T/C: 123%
[6]
  viability, T/C: 107%
[7]
  viability, T/C: 55%
[8]
  viability, T/C: 56.8%
[9]
  viability, T/C: 108%
[10]
  viability, T/C: 115%
[11]
  viability, T/C: 111%
[12]
  viability, T/C: 98.4%
[13]
  viability, T/C: 58.1%
[14]
  viability, T/C: 53.3%
[15]
  viability, T/C: 104%
[16]
  viability, T/C: 107%
[17]
  viability, T/C: 102%
[18]
  viability, T/C: 106%
[19]
  viability, T/C: 52.3%
[20]
  viability, T/C: 50.6%
[21]
  viability, T/C: 103%
[22]
  viability, T/C: 95.8%
[23]
  viability, T/C: 106%
[24]
  viability, T/C: 95.8%
[25]
  viability, T/C: 44.7%
[26]
  viability, T/C: 42%
[27]
  viability, T/C: 84.7%
[28]
  viability, T/C: 87.1%
[29]
  viability, T/C: 85%
[30]
  viability, T/C: 76.3%
